Assay results: PubChem BioAssay AID366 (MTDP, 2006)
Where “and” joins values, the source holds several entries; their conditions need not be identical. Equal values may be shown once. Calls of active or inactive are those of the source. The rule behind the calls is not given here.

Target: Ribonuclease H1 (Homo sapiens) (UniProt O60930)
Test: inhibition of human ribonuclease H1 activity – biochemical, FRET RNA/DNA duplex cleavage, dose response (AID 366);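 note: potency is for inhibitors that lower RNA cleavage and so lower fluorescence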
Details: human RNase H1, FRET RNA/DNA duplex cleavage, fluorescence

Chain of Ribonuclease H1 (Homo sapiens) (O60930 whole entry, looked up): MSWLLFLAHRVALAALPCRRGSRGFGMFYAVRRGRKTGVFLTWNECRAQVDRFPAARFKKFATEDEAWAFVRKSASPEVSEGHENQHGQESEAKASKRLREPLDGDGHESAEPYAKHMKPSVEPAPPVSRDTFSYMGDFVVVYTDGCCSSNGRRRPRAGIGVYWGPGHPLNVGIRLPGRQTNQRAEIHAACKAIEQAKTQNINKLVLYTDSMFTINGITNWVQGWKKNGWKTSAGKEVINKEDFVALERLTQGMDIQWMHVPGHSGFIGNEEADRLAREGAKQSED

Compound | IC50
NC(=O)c1c(NC(=O)COc2ccccc2)sc2c1CCCCC2 | 3800 nM
COc1cc(-c2[o+]c3cc(O)cc(O)c3cc2O)cc(O)c1O | 2400 nM and 4000 nM
O=C1c2ccccc2C(=O)c2c(NC3CCCCC3)ccc(Nc3ccc(S(=O)(=O)O)cc3)c21 | 2200 nM
O=[N+]([O-])c1ccc2c(N=Nc3ccc4ccccc4c3O)c(O)cc(S(=O)(=O)O)c2c1 | 300 nM
C[C@H]1[C@H](O)c2c(c3c(c4c(-c5ccccc5)cc(=O)oc24)OC(C)(C)C=C3)O[C@@H]1C | 9000 nM
Oc1c(Br)cc(/C=N/Nc2nnc3c(n2)[nH]c2ccccc23)c(Br)c1O | 300 nM
CCOC(=O)Oc1c(OC)cc(C(=O)O[C@@H]2C[C@@H]3CN4CCc5c([nH]c6cc(OC)ccc56)[C@H]4C[C@@H]3[C@H](C(=O)OC)[C@H]2OC)cc1OC | inactive
COc1ccc2c(c1)N(C(=O)CN1C(=O)c3ccccc3C1=O)C(C)(C)c1ssc(=S)c1-2 | inactive
Cc1ccc(C2COc3cc(O)c(O)cc3C2)cc1 (stereo unspecified) | 4800 nM
CC(C)=Cc1cc(CCC/C(C)=C/Cc2c(O)cc(C)c(C(=O)O)c2O)co1 | 1100 nM
Cc1ccc(C=C2C(=O)NC(=S)N(c3ccccc3Cl)C2=O)o1 | inactive
O=C(O)/C=C/c1c2ccc(=O)c(O)c-2oc2c(O)c(O)ccc12 | 50 nM
Cc1cc(O)c2c(c1O)C(=O)c1cccc(O)c1C2=O | inactive
Cc1ccc(-n2c(/C=C/c3ccc(O)c(O)c3)nc3ccccc3c2=O)cc1 | 7300 nM
Cc1cc(I)c2c(c1)C1C=CCC1C(C(=O)O)N2 (stereo unspecified) | inactive
O=C1NC(=S)S/C1=C/c1cccc(OCc2ccc(Cl)c(Cl)c2)c1 | 7300 nM
O=C1NN(c2ccc(I)cc2)C(=O)/C1=C\c1ccc(O)c(O)c1 | 8300 nM
Cc1ccc(NC(=O)c2c(NC(=O)c3ccccc3F)sc3c2CCCCC3)cc1 | 320 nM
C=C(CCC(C(=O)O)C1CCC2(C)C3=C(CCC12C)C1(C)CCC(O)C(C)(C)C1CC3)C(C)C (stereo unspecified) | 4800 nM
CC1Oc2cc3c(-c4c(O)cc(O)c5c(O)c6c(cc45)OC(C)C(C)C6=O)c(O)cc(O)c3c(O)c2C(=O)C1C (stereo unspecified) | 2700 nM
Cc1ccc(S(=O)(=O)/N=C2\C=CC(=O)C=C2Cl)cc1 | 3400 nM
COc1cc(/C=N\c2sc3c(c2C(=O)NCc2ccccc2)CCCC3)cc(Cl)c1O | 2000 nM
Cc1c(Cl)ccc2c1NC(C(=O)O)C1CC=CC21 (stereo unspecified) | 2000 nM
O=C1c2ccc(O)cc2C(=O)c2c1ccc(O)c2O | 7000 nM

Compound | IC50
O=c1c(O)cccc2cc(O)c(O)c(O)c12 | 900 nM
CC(C)=CCc1ccc(O)c(=O)cc1C(C)C | inactive
O=C1c2cc([N+](=O)[O-])ccc2-c2ccc3c4ccc5c6c(ccc(c7ccc1c2c73)c64)C(=O)c1cc([N+](=O)[O-])ccc1-5 | 400 nM
O=C(Nc1sc2c(c1C(=O)Nc1cccc3ccccc13)CCCCC2)c1ccccc1F | 4800 nM
O=C1C(Cl)=C/C(=N\S(=O)(=O)c2ccc(Cl)cc2)C(Cl)=C1Cl | 4600 nM
CC1=C(CCC(=O)O)c2cc3nc(cc4[nH]c(cc5[nH]c(cc1n2)c(C)c5C(C)O)c(C)c4C(C)O)C(C)=C3CCC(=O)O (stereo unspecified) | 400 nM
Oc1cc(O)c2c(c1)OC(c1ccc(O)c(O)c1)C(OC1(c3cc(O)c(O)c(O)c3)Oc3cc(O)cc(O)c3C(O)C1O)C2 (stereo unspecified) | 2400 nM
Cc1cc(C)c2c(=O)[nH]c(SCC(=O)c3ccc(O)c(O)c3)nc2n1 | 9000 nM
CCOc1ccc(C(=O)Nc2ccc3c(c2)C(=O)c2ccccc2C3=O)cc1 | 1100 nM
Cc1ccc(C)n1-c1ccc(Br)cc1C(=O)O | 9000 nM
O=C(NC(=S)Nc1cc(-c2nc3ccccc3s2)ccc1Cl)c1ccc(F)cc1 | 800 nM
O=C(N/N=C/c1ccccc1Cl)c1cc(O)c(O)c(O)c1 | inactive
Cc1cc(=O)c2c(O)c3c(O)cc(O)c4c5c(O)cc(O)c6c(O)c7c(=O)cc(C)c8c1c2c(c34)c(c65)c78 | 1100 nM
C=CCN1C(=O)/C(=C\c2ccc([N+](=O)[O-])o2)C(=O)NC1=S | inactive
O=C1C(Cl)=C(NC(=O)c2ccccc2)C(=O)C(Cl)=C1NC(=O)c1ccccc1 | inactive
Cc1sc(NC(=O)c2ccc(Br)o2)c(C(N)=O)c1C | 5000 nM
Cc1ccc(C)n1-c1ccc(O)c(C(=O)O)c1 | 900 nM
COc1cccc(-c2nc3cc(NC(=O)/C=C\c4ccccc4)ccc3o2)c1 | 800 nM
O=C1C=CC(=NS(=O)(=O)c2ccc(Cl)c([N+](=O)[O-])c2)C=C1 | 2100 nM
CC(=O)C1=C(O)[C@@]2(O)C(=O)c3c(c(C)c4ccc(C)c(O)c4c3O)C[C@H]2[C@@H](N)C1=O | 700 nM
O=c1c(O)c(-c2cc(O)c(O)c(O)c2)oc2cc(O)cc(O)c12 | 3000 nM
Cc1onc(-c2ccccc2)c1C(=O)Nc1sc(C)c(C)c1C(N)=O | 8000 nM
CN(C)S(=O)(=O)c1ccc(Nc2ccc(O)c3c2C(=O)c2c([N+](=O)[O-])ccc(O)c2C3=O)cc1 | 800 nM
Cc1cc(-c2ccco2)c(C#N)c(SCC(=O)c2ccc(O)c(O)c2)n1 | 1800 nM

Compound | IC50
C[C@]12Cc3cnc(-c4ccccc4)nc3C[C@@H]1CC[C@@H]1[C@@H]2CC[C@@]2(C)[C@H]1CC[C@]2(C)O | 2800 nM
COc1ccccc1NC(=O)c1c(NC(=O)Cc2ccccc2)sc2c1CCCCC2 | 480 nM
Cc1ccc(NC(=O)c2c(NC(=O)C(F)(F)F)sc(-c3ccccc3)c2C)c(C)c1 | 7500 nM
O=c1oc2ccccc2c(O)c1/C=C1\C=Nc2ccccc21 | 9700 nM
Cc1ccc(N2C(=O)/C(=C/c3ccc(O)c(O)c3)SC2=S)cc1C | 4000 nM
O=[N+]([O-])c1ccc(S(=O)(=O)Cc2ccccc2)c2nonc12 | 5000 nM
NC(=O)c1c(N)sc2c1CCCCC2 | inactive
CCc1c(O)c2c(c(O)c1C(C)=O)C(=O)c1c(cc(O)c(C(=O)O)c1C(=O)O)C2=O | 3600 nM
Nc1c(S(=O)(=O)O)cc(Nc2cccc(S(N)(=O)=O)c2)c2c1C(=O)c1ccccc1C2=O | 2600 nM
Cc1ccc(C(=O)NC(=S)Nc2ccc(-c3nc4ccccc4s3)cc2)cc1[N+](=O)[O-] | 800 nM
CC1=NN(c2ccc(S(N)(=O)=O)cc2)C(=O)/C1=C/c1ccc(-c2ccc(Cl)cc2Cl)o1 | 750 nM
CC(C)=CCC[C@]1(C)[C@@H](CC=C(C)C)C[C@@]2(CC=C(C)C)C(=O)/C(=C(\O)c3ccc(O)c(O)c3)C(=O)[C@]1(CC=C(C)C)C2=O | 3200 nM
Cc1cc(O)c2c(c1O)C(=O)C13C(=C2O)C(=O)C2C(O)C1C1C(O)C3C(=O)C3=C(O)c4c(O)cc(C)c(O)c4C(=O)C321 (stereo unspecified) | 4000 nM
COc1c(OC)c(O)c2c(=O)cc(-c3ccc(O)c(O)c3)oc2c1OC | inactive
Cc1ccc(C(=O)Nc2sc(C)c(C)c2C(N)=O)cc1 | 800 nM
COC(=O)c1c(N)sc(C(=O)Nc2ccc(OC)cc2)c1C | inactive
COc1ccc(C(=O)NC(=S)Nc2ccc3nn(-c4ccc(C)c(Cl)c4)nc3c2)cc1[N+](=O)[O-] | 560 nM
O=C1/C(=C/c2ccco2)C(=O)N(c2ccc(Br)cc2)C(=S)N1c1ccccc1 | 4400 nM
COc1ccc(C2COc3cc(O)c(O)cc3C2)cc1 (stereo unspecified) | 2800 nM
Cc1sc(NC(=O)c2ccco2)c(C(N)=O)c1C | inactive
Cc1ccc(S(=O)(=O)N=C2C=C(Cl)C(=O)C(Br)=C2)cc1 | 4700 nM
NC(=O)c1c(NC(=O)CCc2ccccc2)sc2c1CCCCCC2 | 1800 nM
O=C1NC(=S)N(c2ccccc2F)C(=O)/C1=C/c1ccc(I)o1 | 3000 nM
